In ChEMBL document CHEMBL1201862, “PubChem BioAssay data set” (2004):
Activity calls are given as the source filed them.

Key:
[1] = test system: HEK293; test: cells; conditions: Homo sapiens
[2] = test system: HEK293; test: cells; conditions: Homo sapiens; remark: listed apart in the source
[3] = test system: Jurkat; test: antigen receptor-induced NF-kB inhibitors, dose response, Jurkat, luciferase reporter, luminescence, B- and T-cell (AID 489004); type: functional, cell-based; conditions: Homo sapiens;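 further: NF-kB luciferase reporter Jurkat cells stimulated with PMA plus ionomycin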
[4] = cytotoxicity in HEK-293T NF-kB-Luc cells, dose response, cytotoxicity control for B/T-cell NF-kB inhibitor project, cell-based, uHTS hits (AID 489019); type: functional;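 further: IC50 reflects cytotoxicity as loss of cell viability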
[5] = Luminescence Cell-Based Dose Retest to Confirm Inhibitors of Cancer Stem Cells. [Related pubchem assays (depositor defined):AID2717, AID2721]; type: functional; conditions: Homo sapiens
[6] = target: T1, CAAX prenyl protease 2 (Saccharomyces cerevisiae S288c, UniProt Q03530); type: biochemical
T1 sequence (Q03530 whole entry): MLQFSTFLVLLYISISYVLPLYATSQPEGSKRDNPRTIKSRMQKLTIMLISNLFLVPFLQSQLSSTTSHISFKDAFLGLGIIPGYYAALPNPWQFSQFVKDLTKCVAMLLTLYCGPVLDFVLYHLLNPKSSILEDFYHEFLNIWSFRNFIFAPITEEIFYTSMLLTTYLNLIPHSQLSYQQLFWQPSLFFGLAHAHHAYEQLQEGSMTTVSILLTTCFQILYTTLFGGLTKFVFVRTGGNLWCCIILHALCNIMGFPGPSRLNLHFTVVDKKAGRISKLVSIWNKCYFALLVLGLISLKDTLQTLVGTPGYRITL

[7] = cytotoxicity in HMLE control line with eGFP shRNA, dose response, counter-screen for HMLE_sh_ECad selective toxicity project, cell-based, HMLE_sh_eGFP, luminescence (AID 463074); type: functional, Homo sapiens;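 further: HMLE human mammary epithelial cells expressing control shRNA against eGFP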

SMILES: COc1ccc(Cn2nnc3c(O)nc(C(=O)NCCc4ccc(F)cc4)nc32)cc1OC
- EC50 [1]: > 59.7 µM (inactive)
- EC50 [2]: > 59.7 µM (inactive)

SMILES: N=c1ccn2c(n1)O[C@H]1[C@@H](CO)[C@H](O)O[C@H]12
- IC50 [3]: > 80 µM (inactive)
- IC50 [4]: > 80 µM (inactive)

SMILES: CCCCN=C(S)N=Nc1c(O)n(Cc2ccccc2)c2ccccc12
- AC50 [5]: 61.5 µM (active)
- AC50 [6]: 0.601 µM (active)
- AC50 [7]: 119 µM (active)
